Laboratory results published in ChEMBL document CHEMBL1136544, “3-(2-carboxyethyl)-4,6-dichloro-1H-indole-2-carboxylic acid: an allosteric inhibitor of fructose-1,6-bisphosphatase at the AMP site” (Bioorg Med Chem Lett, 2003).

Molecular target: not listed separately
Test: Inhibitory activity against Fructose-1,6-bisphosphatase (F16BPase) in human liver
Format: tissue-based

Compound | IC50
O=C(O)CCc1c(C(=O)NO)[nH]c2cc(Cl)cc(Cl)c12 | > 10000 nM
Cn1c(C(=O)O)c(CCC(=O)O)c2c(Cl)cc(Cl)cc21 | > 10000 nM
CN(C)C(=O)c1[nH]c2cc(Cl)cc(Cl)c2c1CCC(=O)O | > 10000 nM
CCOC(=O)c1[nH]c2cc(Cl)cc(Cl)c2c1CCC(=O)O | > 10000 nM
O=C(O)CCc1c(CO)[nH]c2cc(Cl)cc(Cl)c12 | > 10000 nM
NC(=O)c1[nH]c2cc(Cl)cc(Cl)c2c1CCC(=O)O | > 10000 nM

The next lines start with the values.

IC50 | Compound
1000 nM | O=C(O)CCCc1c(C(=O)O)[nH]c2cc(Cl)cc(Cl)c12
2500 nM | O=C(O)Cc1c(C(=O)O)[nH]c2cc(Cl)cc(Cl)c12
7000 nM | COC(=O)CCc1c(C(=O)O)[nH]c2cc(Cl)cc(Cl)c12
1700 nM | CN(C)C(=O)CCc1c(C(=O)O)[nH]c2cc(Cl)cc(Cl)c12
2200 nM | NC(=O)CCc1c(C(=O)O)[nH]c2cc(Cl)cc(Cl)c12
2700 nM | O=C(O)c1[nH]c2cc(Cl)cc(Cl)c2c1CCCO
1500 nM | O=C(CCc1c(C(=O)O)[nH]c2cc(Cl)cc(Cl)c12)NO
1200 nM | O=C(O)CCCCc1c(C(=O)O)[nH]c2cc(Cl)cc(Cl)c12

Molecular target: T1, Fructose-1,6-bisphosphatase 1 (Sus scrofa, UniProt P00636)
T1 sequence (P00636 whole entry): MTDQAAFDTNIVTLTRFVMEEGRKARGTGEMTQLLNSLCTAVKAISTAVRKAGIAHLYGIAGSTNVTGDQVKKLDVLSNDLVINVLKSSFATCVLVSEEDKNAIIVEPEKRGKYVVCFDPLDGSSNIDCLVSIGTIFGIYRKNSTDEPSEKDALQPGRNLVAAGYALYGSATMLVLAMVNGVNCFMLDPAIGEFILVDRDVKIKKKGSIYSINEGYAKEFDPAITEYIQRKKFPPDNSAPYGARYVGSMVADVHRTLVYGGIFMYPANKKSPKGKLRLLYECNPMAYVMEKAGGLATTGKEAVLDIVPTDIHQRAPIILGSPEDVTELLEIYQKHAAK
Test: Inhibitory activity against Fructose-1,6-bisphosphatase (F16BPase) in porcine kidney
Format: tissue-based

IC50 | Compound
1000 nM | O=C(O)CCc1c(C(=O)O)[nH]c2cc(Cl)cc(Cl)c12

Molecular target: not listed separately
Test: Inhibitory activity against Fructose-1,6-bisphosphatase (F16BPase) in rabbit liver
Format: tissue-based, Oryctolagus cuniculus

IC50 | Compound
210 nM | O=C(O)CCc1c(C(=O)O)[nH]c2cc(Cl)cc(Cl)c12

Molecular target: not listed separately
Test: Inhibitory activity against Fructose-1,6-bisphosphatase (F16BPase) in rat liver
Format: tissue-based

IC50 | Compound
11000 nM | O=C(O)CCc1c(C(=O)O)[nH]c2cc(Cl)cc(Cl)c12
